Experimental data taken from article PMC9032825, “Docking, Binding Free Energy Calculations and In Vitro Characterization of Pyrazine Linked 2-Aminobenzamides as Novel Class I Histone Deacetylase (HDAC) Inhibitors” (Molecules, 2022).
Read-outs that look alike come from different tables or passages of the source.

What was measured:
human HDAC1 [1] = target: T1, human HDAC1 (Homo sapiens, UniProt Q13547); details: training set, from in vitro IC50; cited from earlier work
human HDAC2 [2] = target: T2, human HDAC2 (Homo sapiens, UniProt Q92769); details: training set, from in vitro IC50; cited from earlier work
human HDAC3 [3] = target: T3, human HDAC3 (Homo sapiens, UniProt O15379); details: training set, from in vitro IC50; cited from earlier work
human HDAC1 [4] = target: T1, human HDAC1; test: HDAC1 inhibition, fluorogenic peptide substrate Ac-RHKK(Acetyl)-AMC; format: biochemical; details: test set
Procedure: (§1) HDAC1, 2, 3 inhibitory activity for the novel inhibitors was performed as previously reported. To keep the test number small, we applied a two-step screening.
(§2) A fluorogenic peptide derived from p53 (Ac-RHKK(Acetyl)-AMC) was used as substrate. The measurements were performed in an assay buffer (50 mM Hepes, 150 mM NaCl, 5 mM MgCl2, 1 mM TCEP and 0.2 mg/mL BSA, pH 7.4 adjusted with NaOH) at 37 °C. Inhibitors at different concentrations were incubated with 10 nM HDAC1, 3 nM HDAC2 or 3 nM HDAC3 (final concentration) for at least 5 min. The reaction was started with the addition of the fluorogenic substrate (20 µM final concentration) and incubated for 30 min for HDAC2 and HDAC3 and 90 min for HDAC1. The reaction was stopped with a solution of 1 mg/mL trypsin in 1 mM HCl and incubated for 1 h at 37 °C. The fluorescence intensity was recorded with an Envision 2104 Multilabel Plate Reader (PerkinElmer, Waltham, MA) with an excitation wavelength of 380 ± 8 nm and an emission wavelength of 430 ± 8 nm. The received fluorescence intensities were normalized with uninhibited reaction as 100% and the reaction without enzyme as 0%. A nonlinear regression analysis was done to determine the IC50 value.

human HDAC2 [5] = target: T2, human HDAC2; test: HDAC2 inhibition, fluorogenic peptide substrate Ac-RHKK(Acetyl)-AMC; format: biochemical; details: test set
Procedure: as §1, §2

human HDAC3 [6] = target: T3, human HDAC3; test: HDAC3 inhibition, fluorogenic peptide substrate Ac-RHKK(Acetyl)-AMC; format: biochemical; details: test set
Procedure: as §1, §2

T3 sequence (O15379 whole entry): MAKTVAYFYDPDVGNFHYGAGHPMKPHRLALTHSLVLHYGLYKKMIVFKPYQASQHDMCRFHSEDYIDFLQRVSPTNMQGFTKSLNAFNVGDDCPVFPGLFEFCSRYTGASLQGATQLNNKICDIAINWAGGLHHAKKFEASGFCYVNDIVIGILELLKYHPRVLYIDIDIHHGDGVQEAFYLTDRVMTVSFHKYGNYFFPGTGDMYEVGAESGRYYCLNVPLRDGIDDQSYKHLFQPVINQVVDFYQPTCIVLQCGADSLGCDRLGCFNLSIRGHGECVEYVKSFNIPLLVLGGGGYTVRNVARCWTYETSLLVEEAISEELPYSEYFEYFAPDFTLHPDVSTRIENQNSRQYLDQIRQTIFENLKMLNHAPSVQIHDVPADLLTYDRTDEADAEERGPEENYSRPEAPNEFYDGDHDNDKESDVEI
T3 sequence (O75376 395-489 partner limits assumed): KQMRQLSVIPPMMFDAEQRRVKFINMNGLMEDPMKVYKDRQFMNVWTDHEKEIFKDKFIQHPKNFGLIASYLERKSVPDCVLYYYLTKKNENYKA
T2 sequence (Q92769 whole entry): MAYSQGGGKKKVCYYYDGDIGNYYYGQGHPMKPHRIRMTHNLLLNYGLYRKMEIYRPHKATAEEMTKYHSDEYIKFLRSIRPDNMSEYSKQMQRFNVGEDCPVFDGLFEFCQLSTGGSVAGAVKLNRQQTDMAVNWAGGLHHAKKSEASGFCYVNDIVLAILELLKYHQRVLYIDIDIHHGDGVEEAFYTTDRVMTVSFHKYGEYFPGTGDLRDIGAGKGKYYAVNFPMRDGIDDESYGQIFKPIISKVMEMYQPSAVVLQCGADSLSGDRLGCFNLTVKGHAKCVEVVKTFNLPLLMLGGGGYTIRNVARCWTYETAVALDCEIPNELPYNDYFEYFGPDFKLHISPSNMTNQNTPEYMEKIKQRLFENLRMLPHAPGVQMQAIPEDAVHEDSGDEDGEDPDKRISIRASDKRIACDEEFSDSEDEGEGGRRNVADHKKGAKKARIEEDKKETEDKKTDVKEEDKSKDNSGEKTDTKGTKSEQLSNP
T1 sequence (Q13547 whole entry): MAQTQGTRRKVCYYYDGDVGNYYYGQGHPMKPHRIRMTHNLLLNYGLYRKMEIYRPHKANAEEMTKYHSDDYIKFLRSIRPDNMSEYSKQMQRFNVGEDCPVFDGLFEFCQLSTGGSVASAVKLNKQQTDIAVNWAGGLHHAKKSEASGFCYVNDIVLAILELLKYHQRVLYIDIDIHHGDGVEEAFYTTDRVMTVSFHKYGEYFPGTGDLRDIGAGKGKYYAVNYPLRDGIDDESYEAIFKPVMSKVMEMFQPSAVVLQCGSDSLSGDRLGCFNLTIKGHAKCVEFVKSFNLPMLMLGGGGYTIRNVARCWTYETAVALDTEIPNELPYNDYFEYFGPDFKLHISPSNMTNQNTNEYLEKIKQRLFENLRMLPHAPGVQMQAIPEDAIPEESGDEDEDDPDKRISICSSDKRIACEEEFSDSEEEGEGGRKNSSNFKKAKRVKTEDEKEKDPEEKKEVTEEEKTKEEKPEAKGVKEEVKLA

| SMILES | HDAC1-pIC50 (human HDAC1 [1]) | HDAC2-pIC50 (human HDAC2 [2]) | HDAC3-pIC50 (human HDAC3 [3]) | further results |
| --- | --- | --- | --- | --- |
| Nc1ccccc1NC(=O)c1cnc(N2CCN(CCc3ccccc3)CC2)cn1 [19a] | 6.29 | 6.10 | 5.95 | – |
| Nc1ccccc1NC(=O)c1cnc(N2CCN(Cc3ccccn3)CC2)cn1 [19d] | 6.28 | 5.84 | 5.97 | – |
| Nc1ccccc1NC(=O)c1cnc(N2CCN(Cc3csc4ccccc34)CC2)cn1 [19e] | 6.68 | 6.15 | 6.08 | – |
| Nc1ccccc1NC(=O)c1cnc(N2CCN(CCc3c[nH]c4ccccc34)CC2)cn1 [19g] | 6.51 | 6.02 | 6.31 | – |
| Nc1cc(F)c(F)cc1NC(=O)c1cnc(N2CCN(CCc3c[nH]c4ccccc34)CC2)cn1 [19h] | 6.09 | 6.13 | 6.24 | – |
| Nc1cc(Cl)ccc1NC(=O)c1cnc(N2CCN(CCc3c[nH]c4ccccc34)CC2)cn1 [19i] | 5.52 | 5.57 | 5.72 | – |
| Cn1cc(CN2CCN(c3ncc(C(=O)Nc4ccccc4N)cn3)CC2)c2ccccc21 [19j] | 6.35 | 6.03 | 5.76 | – |
| Cn1cc(CN2CCN(c3cnc(C(=O)Nc4ccccc4N)cn3)CC2)c2ccccc21 [19k] | 6.85 | 6.25 | 6.23 | – |
| Cn1cc(CN2CCN(c3cnc(C(=O)Nc4cc(F)c(F)cc4N)cn3)CC2)c2ccccc21 [19l] | 6.54 | 6.25 | 6.09 | – |
| Cn1cc(CCN2CCN(c3cnc(C(=O)Nc4ccc(F)cc4N)cn3)CC2)c2ccccc21 [19m] | 6.40 | 5.83 | 6.40 | – |
| Cn1cc(CCN2CCN(c3cnc(C(=O)Nc4cc(-c5cccs5)ccc4N)cn3)CC2)c2ccccc21 [21a] | 6.59 | 5.61 | – | – |
| Nc1ccc(-c2ccc(F)cc2)cc1NC(=O)c1cnc(N2CCN(CCc3c[nH]c4ccccc34)CC2)cn1 [21b] | 6.15 | 6.11 | – | – |
| Nc1ccc(-c2ccccc2F)cc1NC(=O)c1cnc(N2CCN(CCc3c[nH]c4ccccc34)CC2)cn1 [21c] | 6.12 | 6.12 | 4.82 | – |
| Nc1cc(F)ccc1NC(=O)c1cnc(N2CCNCC2)cn1 [23a] | 5.48 | 5.66 | 6.40 | – |
| Cn1cc(CN2CCN(c3cnc(C(=O)Nc4cc(F)ccc4N)cn3)CC2)c2ccccc21 [23b] | 6.57 | 6.30 | 6.30 | – |
| Cn1cc(CCN2CCN(c3cnc(C(=O)Nc4cc(F)ccc4N)cn3)CC2)c2ccccc21 [23c] | 6.48 | 5.86 | 6.23 | – |
| Nc1cc(Cl)ccc1NC(=O)c1cnc(N2CCNCC2)cn1 [25a] | – | – | 5.06 | – |
| Nc1cc(F)c(F)cc1NC(=O)c1cnc(N2CCNCC2)cn1 [25b] | 5.37 | 5.38 | 5.80 | – |
| COc1ccc(NC(=O)c2cnc(N3CCNCC3)cn2)c(N)c1 [27c] | 4.7 | 4.85 | 4.85 | – |
| CN1CCN(c2cnc(C(=O)Nc3cc(-c4ccsc4)ccc3N)cn2)CC1 [29a] | 6.96 | 6.74 | 5.36 | – |
| Nc1ccc(-c2cccs2)cc1NC(=O)c1cnc(N2CCNCC2)cn1 [29b] | 7.15 | 6.59 | 5.21 | – |
| Nc1ccc(-c2ccc(F)cc2)cc1NC(=O)c1cnc(N2CCNCC2)cn1 [29c] | 6.80 | 6.47 | 5.17 | – |
| CN1CCN(c2cnc(C(=O)Nc3cc(-c4ccccc4F)ccc3N)cn2)CC1 [29d] | 6.74 | 6.59 | 4.92 | – |
| CN1CCN(c2ncc(C(=O)Nc3cc(-c4cccs4)ccc3N)cn2)CC1 [30a] | – | – | – | IC50 (human HDAC1 [4]; read-out: Experimental HDAC1 pIC50 (converted)): 324 nM; IC50 (human HDAC2 [5]): 610 ± 20 nM; inhibition at 1 µM (human HDAC3 [6]; @1 µM): 8%; inhibition at 10 µM (human HDAC3 [6]; @10 µM): 38% |
| CN1CCN(c2cnc(C(=O)Nc3cc(-c4cccs4)ccc3N)cn2)CC1 [30b] | – | – | – | Experimental HDAC1 pIC50 (human HDAC1 [4]): 7.39; IC50 (human HDAC1 [4]; read-out: HDAC1 IC50): 40 ± 6 nM; Experimental HDAC2 pIC50 (human HDAC2 [5]): 6.10; IC50 (human HDAC2 [5]): 790 ± 20 nM; HDAC3 % inhibition (human HDAC3 [6]; @1 µM): 6%; HDAC3 % inhibition (human HDAC3 [6]; @10 µM): 35% |
| CC(=O)N1CCN(c2cnc(C(=O)Nc3cc(-c4cccs4)ccc3N)cn2)CC1 [30c] | – | – | – | Experimental HDAC1 pIC50 (human HDAC1 [4]): 7.72; IC50 (human HDAC1 [4]; read-out: HDAC1 IC50): 19 ± 1 nM; Experimental HDAC2 pIC50 (human HDAC2 [5]): 5.96; IC50 (human HDAC2 [5]): 1100 ± 100 nM; HDAC3 % inhibition (human HDAC3 [6]; @1 µM): 4%; HDAC3 % inhibition (human HDAC3 [6]; @10 µM): 30% |
| CC(=O)N1CCN(c2cnc(C(=O)Nc3ccccc3N)cn2)CC1 [30d] | – | – | – | Experimental HDAC1 pIC50 (human HDAC1 [4]): 5.72; IC50 (human HDAC1 [4]; read-out: HDAC1 IC50): 1900 ± 100 nM; Experimental HDAC2 pIC50 (human HDAC2 [5]): 4.62; IC50 (human HDAC2 [5]): 24000 ± 2000 nM; HDAC3 % inhibition (human HDAC3 [6]; @1 µM): 15%; HDAC3 % inhibition (human HDAC3 [6]; @10 µM): 72% |
| Nc1cc(F)ccc1NC(=O)c1ccc(C(=O)NCc2ccccc2)cc1 [31a] | – | – | – | inhibition at 1 µM (human HDAC1 [4]): 4%; inhibition at 10 µM (human HDAC1 [4]): 31%; inhibition at 1 µM (human HDAC2 [5]): 10%; inhibition at 10 µM (human HDAC2 [5]): 37%; inhibition at 1 µM (human HDAC3 [6]; @1 µM): 21%; inhibition at 10 µM (human HDAC3 [6]; @10 µM): 65% |
| Nc1cc(F)ccc1NC(=O)c1ccc(C(=O)NCc2ccncc2)cc1 [31b] | – | – | – | inhibition at 1 µM (human HDAC1 [4]): 0%; inhibition at 10 µM (human HDAC1 [4]): 27%; inhibition at 1 µM (human HDAC2 [5]): 13%; inhibition at 10 µM (human HDAC2 [5]): 30%; inhibition at 1 µM (human HDAC3 [6]; @1 µM): 19%; inhibition at 10 µM (human HDAC3 [6]; @10 µM): 59% |
| Nc1cc(F)ccc1NC(=O)c1ccc(C(=O)NCc2cccnc2)cc1 [31c] | – | – | – | inhibition at 1 µM (human HDAC1 [4]): 6%; inhibition at 10 µM (human HDAC1 [4]): 36%; inhibition at 1 µM (human HDAC2 [5]): 14%; inhibition at 10 µM (human HDAC2 [5]): 51%; inhibition at 1 µM (human HDAC3 [6]; @1 µM): 25%; inhibition at 10 µM (human HDAC3 [6]; @10 µM): 66% |
